Measurements: patent publication US20180057507A1, “INHIBITORS OF DUAL LEUCINE ZIPPER (DLK) KINASE FOR THE TREATMENT OF DISEASE” (Board of Regents, The University of Texas System, priority 2016, published 2018)

Legend:
[1] = target: T1, human DLK (Homo sapiens, UniProt Q12852); experiment: DLK Kd Determinations (KINOMEscan KdELECT, DiscoveRx); set-up: full length of human DLK (amino acids 1-859); host or cells: transiently transfected HEK293 cells; unpurified extract; conditions: fusion protein of full length human DLK (amino acids 1-859) and NFkB DNA binding domain; qPCR readout; duplicate
T1 sequence (Q12852 1-859): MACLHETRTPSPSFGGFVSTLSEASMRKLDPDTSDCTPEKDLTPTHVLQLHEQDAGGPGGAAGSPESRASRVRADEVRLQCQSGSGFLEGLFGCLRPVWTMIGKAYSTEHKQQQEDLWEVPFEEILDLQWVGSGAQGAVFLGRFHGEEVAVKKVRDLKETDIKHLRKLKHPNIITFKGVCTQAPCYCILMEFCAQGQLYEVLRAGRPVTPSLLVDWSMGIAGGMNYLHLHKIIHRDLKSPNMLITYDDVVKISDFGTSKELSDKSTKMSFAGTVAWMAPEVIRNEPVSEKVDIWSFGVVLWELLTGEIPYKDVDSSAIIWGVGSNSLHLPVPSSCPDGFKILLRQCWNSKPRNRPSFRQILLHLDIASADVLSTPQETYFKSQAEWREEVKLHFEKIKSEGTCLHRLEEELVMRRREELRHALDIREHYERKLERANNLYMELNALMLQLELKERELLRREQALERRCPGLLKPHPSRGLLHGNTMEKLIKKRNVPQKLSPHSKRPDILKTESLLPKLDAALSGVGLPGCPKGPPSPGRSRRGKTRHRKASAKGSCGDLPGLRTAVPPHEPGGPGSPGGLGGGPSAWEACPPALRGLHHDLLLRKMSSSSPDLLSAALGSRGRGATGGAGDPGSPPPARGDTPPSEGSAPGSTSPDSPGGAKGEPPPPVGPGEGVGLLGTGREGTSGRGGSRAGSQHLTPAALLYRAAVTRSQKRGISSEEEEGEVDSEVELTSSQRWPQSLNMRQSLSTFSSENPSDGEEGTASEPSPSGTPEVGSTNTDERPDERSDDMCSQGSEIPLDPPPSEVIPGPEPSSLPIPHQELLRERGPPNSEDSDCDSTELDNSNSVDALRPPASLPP
Method in brief: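 Kd values were fitted by Hill equation (slope −1) from duplicate 11-point 3-fold dilutions starting at 30,000 nM. Bead-immobilized ligand competed with compound for DNA-tagged full-length human DLK fusion in HEK293 extract (final DMSO 0.9%, 1 h, room temperature), with qPCR readout of bound kinase.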

[2] = target: T1, human DLK; experiment: Phospho-cJun Cellular Assay; assay type: cell-based; set-up: expressed in transfected cells; conditions: HEK293 cells stably transfected with Dox-inducible human DLK; p-cJun (Ser63); 5 h compound incubation
Method in brief: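 HEK293 cells with doxycycline-induced human DLK (induced 20 h; uninduced cells as negative control) treated with compound for 5 h at 37 °C. Phospho-cJun (Ser63) measured in lysates with detection-antibody kit; IC50 from variable-slope dose-response fit.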

| Kd [1] [µM] | IC50 [2] [µM] | Structure (SMILES) |
| --- | --- | --- |
| 0.038 | 0.493 | CC(C)c1nc(-c2cnc(N)c(OC(F)(F)F)c2)cn1[C@H]1[C@@H]2CC(N3CCOCC3)C[C@@H]21 (single isomer, unassigned) [Example 19b] |
| 0.011 | 0.874 | CC(C)c1nc(-c2cnc(N)c(OC(F)(F)F)c2)cn1[C@H]1[C@@H]2CC(N3CCN(CCF)CC3)C[C@@H]21 (single isomer, unassigned) [Example 156b, 5-(1-(3-(4-(2-fluoroethyl)piperazin-1-yl)bicyclo[3.1.0]hexan-6-yl)-2-isopropyl-1H-imidazol-4-yl)-3-(trifluoromethoxy)pyridin-2-amine] |
